Laboratory results reported in patent US4859452A (priority 1987, dated 1989).
Like-named read-outs stand apart in the source and are kept apart here.

What was measured:
[1] = RBC putrescine in tumor-bearing versus non tumor-bearing rats infused with feeding solutions; settings: NTB rats; p<0.05
Description: A methylcholanthrene-induced fibrosarcoma (0.17 g) was implanted as a brei into the right flank under anesthesia and the animals were fed a chow diet for 21 days. When the tumors were at least 1.0 cm in width, two-dimensional measurements with calipers were instituted and the equation, length (cm)×(width [cm])^2 ×1/2=grams of tumor tissue, was used to estimate tumor weight. […] The animals were then allowed to recover overnight and continuous infusions were started the next morning. […] After 6 days of continuous infusion, the animals were sacrificed by aortic bleeding. Liver and tumor were excised and weighed and kept frozen at -70° C. until assays were done. Only viable, nonnecrotic tumor tissue was saved and assayed.

[2] = in words; tumor and RBC
Description: After obtaining the blood sample by venipuncture, or some other suitable means, blood hematocrit is determined and the blood is centrifuged for 10 minutes at 500 g. The plasma is removed for albumin determination and the remaining cells are washed with an equal volume of cold 0.9% NaCl and centrifuged at 200 g for 15 minutes. The buffy coat is then carefully aspirated along with the supernatant and discarded. After thoroughly mixing the packed RBC, a 1.0 ml aliquot is extracted for polyamine analysis. While shaking continuously with a Vortex mixer, 2.5 ml of freshly prepared 6% trichloroacetic acid (TCA) is added followed by 60 ul of 100% TCA. This is done to avoid insufficient mixing if 100% TCA is added directly to RBC. The samples are mixed thoroughly for a minimum of 3 minutes and frozen at -70° C. if further extraction steps are performed. The samples are thawed and centrifuged at 200×g for 15 minutes. The supernatant is then transferred to tubes containing 40 ul of concentrated HCl. The samples are washed twice with anhydrous ether and dried. The pellets are dissolved in 100 ul of 0.5 N HCl and centrifuged at 200 g. The clear supernatant is then analyzed for polyamines using, for example, a Durrum D-500 amino acid analyzer.
A methylcholanthrene-induced fibrosarcoma (0.17 g) was implanted as a brei into the right flank under anesthesia and the animals were fed a chow diet for 21 days. […]

[3] = Toxicity of continuous i.v. DFMO infusion for 12 days in tumor-bearing and non-tumor-bearing rats; type: in vivo, rat
Description: FIG. 3. […] Bars indicate standard deviation.
In the above described rat model, a continuous infusion of DFMO was given through a central venous catheter.

[4] = system: ornithine decarboxylase (ODC); settings: cited from earlier work
[5] = human, in vivo
Description: FIG. 4. Platelet counts plotted against days of continuous i.v. DFMO infusion in patients with advanced colorectal carcinoma. […] The paired points are connected by a straight line.
There was no incidence of nausea, vomiting or diarrhea.

[6] = system: DFMO-Induced Thrombocytopenia; settings: rat, in vivo
Description: (§1) Central venous catheters were inserted into Fisher 344 male rats. […] This concentration is equimolar to the arginine concentration in 10% Travasol. After 12 days of infusion the rats were sacrificed and platelet counts were determined in peripheral blood.

[7] = system: DFMO-Induced Thrombocytopenia; experiment: Influence of ornithine co-administration on DFMO-induced thrombocytopenia in the rat; settings: in words
Description: as §1

N=C(N)NCCC[C@H](N)C(=O)O [arginine]
increase in RBC putrescine levels versus chow or essential amino acids only [1]: significantly greater (p<0.05) than those receiving chow or essential amino acids only | comparison of ornithine and arginine for increase in polyamine levels [2]: both appeared to promote an increase in tumor-related levels

NCCCC(N)(C(=O)O)C(F)F (stereo not shown) [DFMO, Difluoromethylornithine]
tumor growth (MCA sarcoma; MCA sarcoma): reduces the growth rate of an MCA sarcoma but does not produce tumor regression | effect on peripheral platelet counts (MCA sarcoma; rat, in vivo): without suppressing peripheral platelet counts | small intestinal mucosa histology ([3]; rat, in vivo): histological evidence of small intestinal mucosal atrophy | white cell count and hematocrit changes ([3]; rat, in vivo): not significantly altered | clinical toxicity ([3]; rats, 12 day study): no significant clinical toxicity | ODC inhibition mode [4]: irreversible inhibitor of ODC | decreased hearing acuity, patients [5]: two | hematocrit [5]: Significant suppression of the hematocrit was also noted with a trend toward dose related suppression | nausea, vomiting or diarrhea [5]: no incidence | platelet suppression, 8 g dose compared with 6 g dose [5]: significantly greater platelet at the 8 g dose as compared with the 6 g dose | time to resolution of all toxicities after discontinuing infusion [5]: two | white cell count [5]: not affected by either dose | effect on platelet suppression / platelet count [6]: significant decrease in platelet count as compared with the saline treatment

NCCC[C@H](N)C(=O)O [ornithine]
effect on platelet suppression / platelet count [7]: significant reversal in the platelet suppression
